Assay results from PMC5608804, “Stepwise Evolution Improves Identification of Diverse Peptides Binding to a Protein Target” (Scientific Reports, 2017).

target: T1, streptavidin (Streptomyces avidinii, UniProt P22629); test: Cy5-streptavidin binding on HotSpot discovery array, 5-mer L-peptide library; conditions: 5-mer L-peptide library array, Cy5-streptavidin; from average of three arrays
T1 construct: purchased GE Healthcare (Little Chalfont, UK)
Procedure, shortened: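 Array of 2,476,099 5-mer peptides (19 amino acids, no cysteine) with Gly-Ser linkers, probed overnight at 4 °C with 0.5 µg/ml Cy5-streptavidin in Tris pH 7.4 buffer containing casein or BSA plus Tween-20. Cy5 fluorescence read at 635 nm; peptides selected by signal-to-background >4 across three arrays.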

T1 sequence (P22629 25-183): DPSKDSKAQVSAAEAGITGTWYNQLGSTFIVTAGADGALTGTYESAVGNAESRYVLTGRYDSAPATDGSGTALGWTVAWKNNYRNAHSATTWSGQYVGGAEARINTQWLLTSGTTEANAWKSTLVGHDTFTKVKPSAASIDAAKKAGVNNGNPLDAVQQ

Substance	S/B (signal to background ratio)
VFHPQ	152.8
MNHPQ	166.1
SFHPQ	121.6
DDHPQ	31.9
HQHPM	47.3
IPHPM	35.9
QGHPM	56.0
APHPM	38.6
FHPQT	34.8
GHPQF	125.7
SDHPM	34.7
NYHPQ	182.7
MEHPM	23.4
AAHPM	35.3
HSHPM	54.9
RMHPM	37.9
LAMYH [L-amino acid 5-mer array peptide]	22.8
FKHPQ	123.2
DHPQK	32.1
TAHPQ	120.0
YPHPQ	190.5
WPHPQ	191.6
HHPQN	150.9
HHPMS	40.6
FRHPQ	211.5
MLHPQ	136.4

Substance	S/B (signal to background ratio)
VRHPQ	151.4
LQHPQ	163.6
HPQHF	18.9
GQHPM	43.1
GPHPQ	144.4
IHPQQ	32.5
HHPQI	19.7
STHPM	48.2
WHPQK	42.1
QSHPQ	135.3
GSHPM	43.0
RAHPQ	147.2
NNHPQ	137.3
LGEYH [L-amino acid 5-mer array peptide]	21.3
WAHPQ	207.5
WHPQY	53.1
LAEYH [L-amino acid 5-mer array peptide]	45.0
HNHPM	37.6
RQHPQ	139.3
GVHPM	31.6
PWHPQ	182.5
KKHPQ	22.5
PHPQY	41.4
FHPMM	24.3
SNHPM	54.1
QQHPM	43.3

Substance	S/B (signal to background ratio)
IQHPQ	139.6
DEHPQ	26.0
HPQAG	125.6
IQHPM	50.9
THPMG	43.8
HPMFS	20.6
YSHPQ	171.8
WHPMM	43.4
MGHPQ	175.3
RSHPQ	137.5
WAHPM	135.8
VHPQH	31.7
SHPQR	26.8
SHPQA	137.0
PHPQW	23.8
PVHPM	27.2
IYHPQ	169.4
SNHPQ	144.9
HHHPQ	143.8
QNHPQ	135.0
QHPQA	138.2
VPHPM	45.9
ILHPQ	121.2
YVHPQ	145.8
SHPQN	135.7
DFHPM	36.4

same assay, conditions: 5-mer L-peptide library array, Cy5-streptavidin; from the average of three arrays

Substance	S/B (signal to background ratio)
FRHPM	89.2
SHPMA	60.4
FHPQS	97.1
HPQGF	63.7
FHPQV	107.2
LTHPM	64.2
YQHPM	84.6
QFHPM	77.7
YSHPM	69.2
GKHPQ	73.5
PVHPQ	99.3
NWHPM	84.8
KTHPQ	86.3
TWHPM	59.8
TLHPQ	111.0
VVHPQ	79.7
HHPQF	110.3
LDHPQ	89.3
QHPQV	84.6
DHPQN	72.7
HPQGA	92.1
HKHPQ	86.4
RHPQV	94.3
THPQV	88.9
HPQGW	60.3
RHPMA	68.6

Substance	S/B (signal to background ratio)
HPQNV	84.4
HPQFY	70.7
WPHPM	95.9
IEHPQ	67.6
NHPQF	99.9
LHPQN	105.2
LHPQF	107.9
KQHPQ	94.4
HIHPQ	104.7
IGHPM	72.3
QPHPQ	90.3
EHPQN	71.2
FEHPQ	96.4
EHHPQ	87.5
FFHPM	89.2
HHPQV	71.9
LAAYH [L-amino acid 5-mer array peptide]	67.7
KNHPQ	104.8
FTHPM	86.0
DRHPQ	87.4
IDHPQ	88.2
HPQVY	64.1
LLHPQ	105.6
HEHPQ	76.5
YLHPM	70.7

same assay, conditions: 5-mer L-peptide library, from the average of three arrays

Substance	S/B (signal to background ratio)
WHGPQ	4.5
MPWRY [L-amino acid 5-mer array peptide]	5.0
PLPDD [L-amino acid 5-mer array peptide]	4.9
HPRWM	4.5
MAFHF [L-amino acid 5-mer array peptide]	4.8
WHMPQ	4.6
HPMRH	4.9
HPMHW	4.9
FFMIM [L-amino acid 5-mer array peptide]	5.1
HPQKF	4.8
PIPDW [L-amino acid 5-mer array peptide]	4.1
HPRQF	4.3
HPMST	4.2
FLGHP	4.2
HPMQH	4.5
HHPGQ	4.3

same assay, conditions: average of three arrays, L-peptide 5-mer library

Substance	S/B (signal to background ratio)
GYWTD [L-amino acid 5-mer array peptide]	8.4
MPWRY [L-amino acid 5-mer array peptide]	5.0
LAMYH [L-amino acid 5-mer array peptide]	22.8
PLPDD [L-amino acid 5-mer array peptide]	4.9
MAFHF [L-amino acid 5-mer array peptide]	4.8
DWDKV [L-amino acid 5-mer array peptide]	5.7
LGSFH [L-amino acid 5-mer array peptide]	8.7
LGEYH [L-amino acid 5-mer array peptide]	21.3
FFMIM [L-amino acid 5-mer array peptide]	5.1
PIPDW [L-amino acid 5-mer array peptide]	4.1
LAEYH [L-amino acid 5-mer array peptide]	45.0
NWDEI [L-amino acid 5-mer array peptide]	7.3
LAAYH [L-amino acid 5-mer array peptide]	67.7
FDAWL [L-amino acid 5-mer array peptide]	11.9
PAWGH [L-amino acid 5-mer array peptide]	11.9
TPSFH [L-amino acid 5-mer array peptide]	6.7
NWDEW [L-amino acid 5-mer array peptide]	7.8

same assay, conditions: signal to background ratio; 5-mer L-peptide library array, Cy5-streptavidin

Substance	S/B
HPQRN	17.7
HPMGI	7.9
DHPMY	6.4
HPQSH	12.3
KHPQW	9.2
GYWTD [L-amino acid 5-mer array peptide]	8.4
DHPMK	13.3
IHPMM	6.6
HPQHL	9.2
HPQMY	11.1
PMPDD	8.2
HPMYP	15.8
THPMM	11.1
HPQYD	8.0
HPWRY	11.4
DWDKV [L-amino acid 5-mer array peptide]	5.7
HPMHG	13.1
LGSFH [L-amino acid 5-mer array peptide]	8.7
HPMYF	12.1
HPMRS	7.0
YHPQI	14.3

Substance	S/B
AHPQI	15.7
NWDEI [L-amino acid 5-mer array peptide]	7.3
KHPMV	6.9
GHPMM	11.7
QHPMH	12.4
FDAWL [L-amino acid 5-mer array peptide]	11.9
AKHPM	18.3
WHPQL	14.5
RHPMI	8.0
PAWGH [L-amino acid 5-mer array peptide]	11.9
THPMH	9.5
TPSFH [L-amino acid 5-mer array peptide]	6.7
NWDEW [L-amino acid 5-mer array peptide]	7.8
HPMYA	11.4
THPMY	10.9
LHPMY	7.0
GHPMY	11.0
HPMFR	5.2
HPQWQ	5.5
HPQRP	9.4
